Publication PMC11676982, “Heterotropic Activation of Cytochrome P450 3A4 by Perillyl Alcohol” (Pharmaceutics, 2024)
pIC50, pKi: −log10 of the molar value.

Experiments:
CYP2B6 [1] = target: T1, CYP2B6 (Homo sapiens, UniProt P20813); test: Direct CYP inhibition assay in pooled HLMs, CYP2B6 (bupropion)
T1 sequence (P20813 1-491): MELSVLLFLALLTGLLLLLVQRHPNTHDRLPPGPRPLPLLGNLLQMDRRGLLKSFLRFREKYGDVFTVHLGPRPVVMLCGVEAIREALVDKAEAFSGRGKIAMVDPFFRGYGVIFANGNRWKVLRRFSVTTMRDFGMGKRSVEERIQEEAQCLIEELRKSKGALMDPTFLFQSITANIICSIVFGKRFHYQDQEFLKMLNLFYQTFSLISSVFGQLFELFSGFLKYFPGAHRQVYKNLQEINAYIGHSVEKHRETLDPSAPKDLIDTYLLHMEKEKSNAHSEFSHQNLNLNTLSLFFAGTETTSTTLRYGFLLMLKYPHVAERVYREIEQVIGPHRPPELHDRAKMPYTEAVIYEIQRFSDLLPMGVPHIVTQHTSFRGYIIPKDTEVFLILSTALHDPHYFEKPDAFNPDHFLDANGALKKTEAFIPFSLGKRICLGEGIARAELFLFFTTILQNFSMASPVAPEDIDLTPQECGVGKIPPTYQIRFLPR

CYP3A4 [2] = target: T2, CYP3A4 (Homo sapiens, UniProt P08684); test: Effect of POH on fimasartan (FMS) metabolism in pooled HLMs: CYP3A4-mediated BR-A-557 formation; type: in vitro ADME; details: FMS 30 μM, 100 μM (−)-POH
Experimental: (§1) The substrates were applied at a concentration that approximated their Km values. The reactions were preincubated for 5 min before being initiated with the addition of 1 mM NADPH. After 10 min incubation, reactions containing atorvastatin, buspirone, FMS, or nifedipine were terminated by the addition of 200 μL of ice-cold acetonitrile with 100 nM carbamazepine as an internal standard. For terminating reactions with donepezil or tadalafil, 200 μL of ice-cold methanol containing 0.5% (v/v) formic acid and 1 μM carbamazepine as internal standard was added to samples. […] The experiment was performed using three separate samples.

CYP2A6 [3] = target: T3, CYP2A6 (Homo sapiens, UniProt P11509); test: Determination of CYP inhibition mode and Ki in pooled HLMs, CYP2A6-mediated coumarin 7-hydroxylation
T3 sequence (P11509 1-494): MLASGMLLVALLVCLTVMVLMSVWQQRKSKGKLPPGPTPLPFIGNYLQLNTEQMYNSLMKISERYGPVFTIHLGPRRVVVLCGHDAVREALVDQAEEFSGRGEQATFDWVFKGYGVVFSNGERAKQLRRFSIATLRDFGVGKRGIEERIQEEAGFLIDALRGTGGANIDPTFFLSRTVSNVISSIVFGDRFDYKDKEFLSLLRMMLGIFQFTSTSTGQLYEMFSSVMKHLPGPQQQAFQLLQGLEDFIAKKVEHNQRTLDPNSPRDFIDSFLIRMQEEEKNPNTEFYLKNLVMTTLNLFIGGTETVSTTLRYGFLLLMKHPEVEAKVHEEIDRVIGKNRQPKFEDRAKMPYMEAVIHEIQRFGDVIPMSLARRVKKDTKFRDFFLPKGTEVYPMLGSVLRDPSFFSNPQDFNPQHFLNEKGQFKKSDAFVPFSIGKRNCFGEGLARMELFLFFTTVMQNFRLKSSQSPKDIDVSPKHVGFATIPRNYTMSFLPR
Experimental: (§4) A 5 min pre-incubation was performed prior to initiating reactions with the addition of 1 mM NADPH. After incubation at 37 °C for 10 min, 200 μL of ice-cold acetonitrile containing 100 nM carbamazepine as an internal standard was added to terminate the reaction. The samples were agitated and centrifuged at 4 °C for 20 min at 3000× g. The supernatants were transferred to a 96-well plate for LC-MS/MS analysis. The experiment was performed using three separate samples.
(§5) Data acquired from the evaluation of enzyme inhibition using various concentrations of substrates and test compounds were fit to different models (competitive, noncompetitive, uncompetitive, or mixed), and inhibition constant (Ki) and goodness of fit values were obtained using GraphPad Prism. The appropriate type of inhibition was selected based on statistical goodness of fit tests including Akaike’s information criterion (AICc) with correction for small sample size and the standard deviation of the residuals (Sy.x).

CYP2C19 = CYP2C19 (Homo sapiens, UniProt P33261); test: Direct CYP inhibition assay in pooled HLMs, CYP2C19 (S-mephenytoin)
CYP3A4 [4] = target: T2, CYP3A4; test: Effect of POH on the metabolism of other CYP3A4 substrates in pooled HLMs; type: in vitro ADME; details: (−)-POH 3.2–100 μM, substrates near Km
Experimental: as §1

CYP2B6 [5] = target: T1, CYP2B6; test: biochemical
Experimental: as §4, §5

CYP2B6 [6] = target: T1, CYP2B6; test: Metabolism-dependent inhibition assay (IC50 shift) in pooled HLMs, CYP2B6; details: substrate bupropion; for pIC50: CYP2B6, pooled HLMs, 95% CI in parentheses
Experimental: (§2) The experiments for determining metabolism-dependent inhibition were conducted utilizing a non-dilution method. […] The pre-incubation was initiated by the addition of 1 mM NADPH and incubation for 30 min. Subsequently, final incubation was performed with the addition of a substrate (5 μM coumarin or 50 μM bupropion) in the presence of NADPH for 10 min; the total volume of the mixture was 200 μL. […] Mixtures were subjected to centrifugation at 3000× g for 20 min at 4 °C, and the supernatants were analyzed using LC-MS/MS. The experiment was performed using three separate samples.
(§3) The CYP-mediated activities in the presence of test substances were expressed as percentages of the corresponding control values.

CYP2A6 [7] = target: T3, CYP2A6; test: Metabolism-dependent inhibition assay (IC50 shift) in pooled HLMs, CYP2A6; details: substrate coumarin; for pIC50: CYP2A6, pooled HLMs, 95% CI in parentheses
Experimental: as §2, §3

CYP2B6 [8] = target: T1, CYP2B6; test: Determination of CYP inhibition mode and Ki in pooled HLMs, CYP2B6-mediated bupropion hydroxylation
Experimental: as §4, §5

CYP3A4 [9] = target: T2, CYP3A4
[10] = best fit by AICc and Sy.x, Dixon plots
[11] = IC50, pre-incubation with NADPH, 30 min pre-incubation with NADPH
[12] = IC50, pre-incubation without NADPH, 30 min pre-incubation without NADPH
[13] = IC50 without NADPH/IC50 with NADPH

T2 sequence (P08684 whole entry): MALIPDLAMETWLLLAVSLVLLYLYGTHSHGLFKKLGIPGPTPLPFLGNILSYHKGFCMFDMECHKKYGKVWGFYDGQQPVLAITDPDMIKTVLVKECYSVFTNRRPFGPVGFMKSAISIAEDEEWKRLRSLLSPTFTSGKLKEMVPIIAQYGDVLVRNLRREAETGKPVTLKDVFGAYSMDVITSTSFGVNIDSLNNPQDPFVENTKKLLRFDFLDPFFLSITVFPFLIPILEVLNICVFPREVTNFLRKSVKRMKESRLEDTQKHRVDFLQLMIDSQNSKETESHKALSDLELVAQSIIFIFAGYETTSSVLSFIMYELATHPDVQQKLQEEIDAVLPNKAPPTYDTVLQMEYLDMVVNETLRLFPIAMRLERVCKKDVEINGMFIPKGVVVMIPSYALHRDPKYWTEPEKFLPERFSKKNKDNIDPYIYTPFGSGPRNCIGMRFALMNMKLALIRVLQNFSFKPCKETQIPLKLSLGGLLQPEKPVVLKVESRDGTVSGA
CYP2C19, sequence (P33261 whole entry): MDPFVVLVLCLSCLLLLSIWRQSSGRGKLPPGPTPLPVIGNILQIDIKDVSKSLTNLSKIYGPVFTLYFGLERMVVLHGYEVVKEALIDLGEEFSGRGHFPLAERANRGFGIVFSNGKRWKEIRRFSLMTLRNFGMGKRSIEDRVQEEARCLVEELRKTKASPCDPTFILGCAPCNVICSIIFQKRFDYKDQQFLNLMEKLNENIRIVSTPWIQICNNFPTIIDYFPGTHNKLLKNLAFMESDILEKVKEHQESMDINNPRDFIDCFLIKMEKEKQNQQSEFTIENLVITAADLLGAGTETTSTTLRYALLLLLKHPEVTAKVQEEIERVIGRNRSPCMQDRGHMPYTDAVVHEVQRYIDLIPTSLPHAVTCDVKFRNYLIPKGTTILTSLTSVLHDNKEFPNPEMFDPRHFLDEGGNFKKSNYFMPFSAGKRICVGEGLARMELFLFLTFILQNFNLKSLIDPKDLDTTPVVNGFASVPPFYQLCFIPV

## C=C(C)[C@@H]1CC=C(CO)CC1 [(−)-POH, (−)-perillyl alcohol]
CYP2B6 [1]
  pIC50: 5.16
CYP3A4 [2]
  BR-A-557 formation from FMS relative to the control: 1.29 fold
CYP2A6 [3]; [10]
  Type of inhibition, CYP2A6: mixed inhibition model
CYP2A6 [3]; pooled HLMs, coumarin, 95% CI in parentheses
  Ki, CYP2A6, uncompetitive model (not selected): 10.9 (9.16–12.9) μM
CYP2C19
  pIC50: < 4.30
CYP3A4 [4]
  Effect on CYP3A4-mediated metabolism of atorvastatin, buspirone, donepezil, nifedipine, and tadalafil: did not significantly affect
CYP2B6 [5]
  pKi: 5.42
CYP2B6 [6]; [11]
  pIC50: 4.87
CYP2B6 [6]; [12]
  pIC50: 4.86
CYP2B6 [6]; [13]
  IC50 fold-shift, CYP2B6: 1.02
CYP2A6 [7]; [11]
  pIC50: 4.63
CYP2A6 [7]; [12]
  pIC50: 4.61
CYP2A6 [7]; [13]
  IC50 fold-shift, CYP2A6: 1.04
CYP2B6 [8]; [10]
  Type of inhibition, CYP2B6: mixed inhibition model
CYP2B6 [8]; pooled HLMs, bupropion, 95% CI in parentheses
  Ki, CYP2B6, uncompetitive model (not selected): 4.54 (3.62–5.56) μM
CYP3A4 [9]; human, 10 min, 50 μM, pH 7.4
  Formation of 1′-OH-MDZ relative to control without (−)-POH: 1.83 fold
CYP3A4 [9]; pooled HLMs, substrate midazolam, test compound 0–50 μM
  Effect on CYP3A4 (midazolam) activity, MDZ 1′-hydroxylation: Stimulation *
